Experimental data: patent publication US20150126467A1, “USE OF ALGINATE OLIGOMERS TO ENHANCE THE EFFECTS OF ANTIFUNGAL AGENTS” (AlgiIPharma AS, priority 2011, published 2015)
Values after ≈ are worked out from the molar mass of the structure shown. Read-outs that look alike come from different tables or passages of the source.

Tests used:
Candida albicans = assay: Robotic MIC assay with asthma/COPD medicaments (Example 5); assay type: cell-based; conditions: Mueller-Hinton broth; for MIC: Candida albicans, 24 h
Description: (§1) A robotic MIC Assay was performed as follows. OligoG CF-5/20 were dissolved in medium (Mueller-Hinton broth or M19 broth depending on experiment) to 1.25 times of the desired assay concentrations (2, 6 and 10%). The antifungal agents under test were dissolved in medium without OligoG CF-5/20 and in medium with OligoG CF-5/20 at a concentration of 1.25 times the highest desired assay concentrations. For experiments where the effect of adding different concentrations of Na^+ was investigated, NaCl was dissolved in medium to the desired concentrations (10, 30 and 50 mM).
(§2) Two-fold serial dilutions of antifungal agents were made in medium with different concentrations of OligoG CF-5/20, and the solutions were placed in four parallel wells in Nunc 384-well micro plates (30 μl per well in Nunc 242757 microplates). A group of 8 wells with no addition of antifungal agents for each OligoG CF-5/20 concentration was included on each microplate as growth reference. To each well in the 384-well assay plates was added 7.5 μl of medium inoculated with a frozen stock culture of Candida albicans (strain CCUG 39343).
(§3) The micro plates were placed in plastic bags and incubated without shaking at 34° C. The optical density at 600 nm in the microwells was measured after approximately 13, 18, 24 and 34 hours of incubation, and the relative growth yield in each well was calculated based on the growth in the reference groups.
The robotic assay described in Example 1 was employed in this Example. […] The concentration utilized for the different components were based on information from Manocha et al. (2006).
In this assay only Mueller-Hinton broth was used since this is the medium specified for standardized MIC assays (Jorgensen et al., 1999).

[1] = tested on: Candida albicans, CCUG 39343; assay: Robotic MIC assay (Example 1); assay type: cell-based; conditions: for MIC: Candida albicans, CCUG39343, 24 h, 24 hours, read-out: Minimum Inhibitory Concentration (MIC); for reduction in MIC values: comparing 0 and 10% G-block
Description: as §1, §2
The frozen stock culture was prepared by growing the Candida strain at 34° C. for 48 h on YM-agar. 1-3 colonies from the plates were grown in 6 ml YM-broth at 34° C. for 14 h before freezing in 6% glycerol at −80° C. Each batch of frozen stock culture was then characterized in separate growth experiments using Mueller-Hinton or M19 broth to determine the minimum amount of inoculum giving satisfactory growth after 48 h under the conditions relevant for the MIC assay. This inoculation procedure is used in order to reduce day to day variation in bioassays.
as §3

[2] = tested on: C. tropicalis 12 (vaginal); assay: Standard MIC testing in RPMI medium (Example 3); assay type: cell-based; conditions: Candida tropicalis, 48 h, read-out: Minimum Inhibitory Concentration (MIC)
Description: (§4) Following retrieval from −80° C. storage, fungal colonies were grown on blood agar with 5% sheep blood and were used to inoculate tryptone soya broth (TSB) for overnight growth. […] Fungal cultures at 0.5 McFarland standard were diluted ten-fold in RPMI medium and 5 μl added to the media containing wells of the microtiter plates. Plates were wrapped in parafilm and incubated at 34° C. for 48 hours. MIC values were determined as the lowest concentration at which there was no visible growth.

[3] = tested on: C. krusei 141/03 (candidosis); assay: Standard MIC testing in RPMI medium (Example 3); assay type: cell-based, Candida krusei; conditions: Pichia kudriavzevii, 48 h, read-out: Minimum Inhibitory Concentration (MIC)
Description: as §4

[4] = tested on: C. tropicalis 519468 (urinary); assay: Standard MIC testing in RPMI medium (Example 3); assay type: cell-based; conditions: Candida tropicalis, 48 h, read-out: Minimum Inhibitory Concentration (MIC)
Description: The Minimum Inhibitory Concentration assay used in this Example was based on Jorgensen et al. (Manual of Clinical Microbiology, 7th ed. Washington, D.C: American Society for Microbiology, 1999; 1526-43). Following retrieval from −80° C. storage, fungal colonies were grown on blood agar with 5% sheep blood and were used to inoculate tryptone soya broth (TSB) for overnight growth. […] Fungal cultures at 0.5 McFarland standard were diluted ten-fold in RPMI medium and 5 μl added to the media containing wells of the microtiter plates. Plates were wrapped in parafilm and incubated at 34° C. for 48 hours. MIC values were determined as the lowest concentration at which there was no visible growth.

[5] = tested on: C. parapsillosis ATCC 22019T; assay: Standard MIC testing in RPMI medium (Example 3); assay type: cell-based, Candida parapsilosis; conditions: Lodderomyces parapsilosis, ATCC2019, 48 h, C. Parapsillosis ATCC 2019^T, read-out: Minimum Inhibitory Concentration (MIC)
Description: as §4

[6] = tested on: C. krusei 249/03(2) (ulceration); assay: Standard MIC testing in RPMI medium (Example 3); assay type: cell-based, Candida krusei; conditions: 48 h
Description: as §4

Question: How did the MIC (Candida albicans; no medicament added, G-block 0%) turn out when `C[C@@H]1[C@H](O)[C@@H](C)/C=C/C=C/C=C/C=C/C=C/C=C/C=C/[C@H](O[C@@H]2O[C@H](C)[C@@H](O)[C@H](N)[C@@H]2O)C[C@@H]2O[C@](O)(C[C@@H](O)C[C@@H](O)[C@H](O)CC[C@@H](O)C[C@@H](O)CC(=O)O[C@H]1C)C[C@H](O)[C@H]2C(=O)O` [Amphotericin B, amphotericin B] was run?
Answer: 0.0938 µg/mL (≈ 0.102 µM)

Question: And the MIC (Candida albicans; no medicament added, G-block 2%)?
Answer: 0.0938 µg/mL (≈ 0.102 µM)

Question: And the MIC (Candida albicans; no medicament added, G-block 6%)?
Answer: 0.0469 µg/mL (≈ 0.0508 µM)

Question: What about the MIC (Candida albicans; no medicament added, G-block 10%) of the same compound?
Answer: 0.0234 µg/mL (≈ 0.0253 µM)

Question: And the MIC (Candida albicans; with Budesonide 0.01 mM, G-block 0%)?
Answer: 0.0938 µg/mL (≈ 0.102 µM)

Question: And the MIC (Candida albicans; with Budesonide 0.01 mM, G-block 2%)?
Answer: 0.0938 µg/mL (≈ 0.102 µM)

Question: What about the MIC (Candida albicans; with Budesonide 0.01 mM, G-block 6%) of the same compound?
Answer: 0.0469 µg/mL (≈ 0.0508 µM)

Question: What about the MIC (Candida albicans; with Budesonide 0.01 mM, G-block 10%) of the same compound?
Answer: 0.0469 µg/mL (≈ 0.0508 µM)

Question: What about the MIC (Candida albicans; with Formoterol 0.5 mM (2% DMSO), G-block 0%) of the same compound?
Answer: 0.0469 µg/mL (≈ 0.0508 µM)

Question: What about the MIC (Candida albicans; with Formoterol 0.5 mM (2% DMSO), G-block 2%) of the same compound?
Answer: 0.0469 µg/mL (≈ 0.0508 µM)

Question: What about the MIC (Candida albicans; with Formoterol 0.5 mM (2% DMSO), G-block 6%) of the same compound?
Answer: 0.0234 µg/mL (≈ 0.0253 µM)

Question: What about the MIC (Candida albicans; with Formoterol 0.5 mM (2% DMSO), G-block 10%) of the same compound?
Answer: 0.0117 µg/mL (≈ 0.0127 µM)

Question: And the MIC (Candida albicans; with Ipratropium bromide 0.01 mM, G-block 0%)?
Answer: 0.0938 µg/mL (≈ 0.102 µM)

Question: What about the MIC (Candida albicans; with Ipratropium bromide 0.01 mM, G-block 2%) of the same compound?
Answer: 0.0469 µg/mL (≈ 0.0508 µM)

Question: And the MIC (Candida albicans; with Ipratropium bromide 0.01 mM, G-block 6%)?
Answer: 0.0234 µg/mL (≈ 0.0253 µM)

Question: And the MIC (Candida albicans; with Ipratropium bromide 0.01 mM, G-block 10%)?
Answer: 0.0117 µg/mL (≈ 0.0127 µM)

Question: What about the MIC (Candida albicans; with Ipratropium bromide 1 mM, G-block 0%) of the same compound?
Answer: 0.188 µg/mL (≈ 0.203 µM)

Question: What about the MIC (Candida albicans; with Ipratropium bromide 1 mM, G-block 2%) of the same compound?
Answer: 0.0938 µg/mL (≈ 0.102 µM)

Question: And the MIC (Candida albicans; with Ipratropium bromide 1 mM, G-block 6%)?
Answer: 0.0469 µg/mL (≈ 0.0508 µM)

Question: And the MIC (Candida albicans; with Ipratropium bromide 1 mM, G-block 10%)?
Answer: 0.0234 µg/mL (≈ 0.0253 µM)

Question: What about the MIC (Candida albicans; with Salbutamol 0.01 mM, G-block 0%) of the same compound?
Answer: 0.0469 µg/mL (≈ 0.0508 µM)

Question: And the MIC (Candida albicans; with Salbutamol 0.01 mM, G-block 2%)?
Answer: 0.0469 µg/mL (≈ 0.0508 µM)

Question: What about the MIC (Candida albicans; with Salbutamol 0.01 mM, G-block 6%) of the same compound?
Answer: 0.0234 µg/mL (≈ 0.0253 µM)

Question: What about the MIC (Candida albicans; with Salbutamol 0.01 mM, G-block 10%) of the same compound?
Answer: 0.0117 µg/mL (≈ 0.0127 µM)

Question: What about the MIC (Candida albicans; with Salbutamol 1 mM, G-block 0%) of the same compound?
Answer: 0.0469 µg/mL (≈ 0.0508 µM)

Question: What about the MIC (Candida albicans; with Salbutamol 1 mM, G-block 2%) of the same compound?
Answer: 0.0469 µg/mL (≈ 0.0508 µM)

Question: And the MIC (Candida albicans; with Salbutamol 1 mM, G-block 6%)?
Answer: 0.0234 µg/mL (≈ 0.0253 µM)

Question: What about the MIC (Candida albicans; with Salbutamol 1 mM, G-block 10%) of the same compound?
Answer: 0.0117 µg/mL (≈ 0.0127 µM)

Question: What about the “reduction in MIC values” (Candida albicans; addition of 10% OligoG CF-5/20 compared to without OligoG CF-5/20) of the same compound?
Answer: 4 ×

Question: What about the MIC ([1]; M19, NaCl 0 mM) of the same compound?
Answer: 1.2 µg/mL (≈ 1.3 µM)

Question: And the MIC ([1]; M19, NaCl 10 mM)?
Answer: 0.3 µg/mL (≈ 0.325 µM)

Question: What about the MIC ([1]; M19, NaCl 30 mM) of the same compound?
Answer: 0.3 µg/mL (≈ 0.325 µM)

Question: What about the MIC ([1]; M19, NaCl 50 mM) of the same compound?
Answer: 0.3 µg/mL (≈ 0.325 µM)

Question: What about the MIC ([1]; M19, OligoG CF 5/20 0%) of the same compound?
Answer: 1.2 µg/mL (≈ 1.3 µM)

Question: What about the MIC ([1]; M19, OligoG CF 5/20 2%) of the same compound?
Answer: 0.3 µg/mL (≈ 0.325 µM)

Question: And the MIC ([1]; M19, OligoG CF 5/20 6%)?
Answer: 0.075 µg/mL (≈ 0.0812 µM)

Question: And the MIC ([1]; M19, OligoG CF 5/20 10%)?
Answer: 0.0375 µg/mL (≈ 0.0406 µM)

Question: And the MIC ([1]; Mueller-Hinton, NaCl 0 mM)?
Answer: 0.15 µg/mL (≈ 0.162 µM)

Question: And the MIC ([1]; Mueller-Hinton, NaCl 10 mM)?
Answer: 0.15 µg/mL (≈ 0.162 µM)

Question: And the MIC ([1]; Mueller-Hinton, NaCl 30 mM)?
Answer: 0.15 µg/mL (≈ 0.162 µM)

Question: And the MIC ([1]; Mueller-Hinton, NaCl 50 mM)?
Answer: 0.15 µg/mL (≈ 0.162 µM)

Question: What about the MIC ([1]; Mueller-Hinton, OligoG CF 5/20 0%) of the same compound?
Answer: 0.15 µg/mL (≈ 0.162 µM)

Question: What about the MIC ([1]; Mueller-Hinton, OligoG CF 5/20 2%) of the same compound?
Answer: 0.15 µg/mL (≈ 0.162 µM)

Question: And the MIC ([1]; Mueller-Hinton, OligoG CF 5/20 6%)?
Answer: 0.0375 µg/mL (≈ 0.0406 µM)

Question: What about the MIC ([1]; Mueller-Hinton, OligoG CF 5/20 10%) of the same compound?
Answer: 0.0094 µg/mL (≈ 0.0102 µM)

Question: What about the “reduction in MIC values” ([1]; M19) of the same compound?
Answer: 32 ×

Question: And the “reduction in MIC values” ([1]; Mueller-Hinton)?
Answer: 16 ×

Question: And the “effect of addition of OligoG CF-5/20 on MIC values” ([1]; both media tested (M19, Mueller-Hinton))?
Answer: reduction in MIC values

Question: What does the source list for `OC(Cn1cncn1)(Cn1cncn1)c1ccc(F)cc1F` [Fluconazole, fluconazole]?
Answer: MIC ([2]; 0% OligoG): 128 µg/mL (≈ 418 µM); MIC ([2]; 2% OligoG): 128 µg/mL (≈ 418 µM); MIC ([2]; 6% OligoG): 4 µg/mL (≈ 13.1 µM); MIC ([2]; 10% OligoG): 1 µg/mL (≈ 3.27 µM); MIC ([3]; 0% OligoG): 128 µg/mL (≈ 418 µM); MIC ([3]; 2% OligoG): 64 µg/mL (≈ 209 µM); MIC ([3]; 6% OligoG): 64 µg/mL (≈ 209 µM); MIC ([3]; 10% OligoG): 32 µg/mL (≈ 104 µM); MIC ([4]; 6% OligoG): 2 µg/mL (≈ 6.53 µM); MIC ([4]; 10% OligoG): 1 µg/mL (≈ 3.27 µM); MIC ([5]; 0% OligoG): 2 µg/mL (≈ 6.53 µM); MIC ([5]; 2% OligoG): 2 µg/mL (≈ 6.53 µM); MIC ([5]; 6% OligoG): 2 µg/mL (≈ 6.53 µM); MIC ([5]; 10% OligoG): 1 µg/mL (≈ 3.27 µM); Minimum Inhibitory Concentration (MIC) ([6]; 0% OligoG): 4 µg/mL; Minimum Inhibitory Concentration (MIC) ([6]; 6% OligoG): 4 µg/mL; Minimum Inhibitory Concentration (MIC) ([6]; 10% OligoG): 4 µg/mL; MIC ([6]; Pichia kudriavzevii, 2% OligoG, read-out: Minimum Inhibitory Concentration (MIC)): 4 µg/mL (≈ 13.1 µM)
